The text below walks through data of ChEMBL document CHEMBL5316357, “Discovery of Linvencorvir (RG7907), a Hepatitis B Virus Core Protein Allosteric Modulator, for the Treatment of Chronic HBV Infection” (J Med Chem, 2023).

pIC50: −log10 of the molar value.

Data set [1] in a line: Cmax in male cynomolgus monkey at 10 mg/kg,po by LC-MS/MS analysis. In kind it is ADME, organism-based, Macaca fascicularis. Details: dose 10 mg/kg, route po. As to conditions: in vivo.
Data set [2] can be described thus: AUClast in female Wistar Han rat at 3 mg/kg,po by LC-MS/MS analysis. In kind it is ADME, organism-based. Also on record: dose 3 mg/kg, route po. As to conditions: in vivo.
Data set [3] can be described thus: AUC (0-infinity) in mouse plasma at 3 mg/kg,po. In kind it is ADME, organism-based. Details: dose 3 mg/kg, route po. As to conditions: in vivo.
Data set [4] in a line: Cmax in female Wistar Han rat at 30 mg/kg,po by LC-MS/MS analysis. In kind it is ADME, organism-based. Also on record: dose 30 mg/kg, route po. As to conditions: in vivo.
Data set [5] can be described thus: Tmax in male minipig at 30 mg/kg,po by LC-MS/MS analysis. In kind it is ADME, organism-based, Sus scrofa domesticus. As to conditions: pig, in vivo.
Data set [6] can be described thus: AUClast in female cynomolgus monkey at 3 mg/kg,po by LC-MS/MS analysis. In kind it is ADME, organism-based, Macaca fascicularis. Also on record: dose 3 mg/kg, route po. As to conditions: in vivo.
Data set [7] in a line: Half life in female cynomolgus monkey at 30 mg/kg,po by LC-MS/MS analysis. In kind it is ADME, organism-based, Macaca fascicularis. As to conditions: in vivo.
Data set [8] in a line: Oral bioavailability in female Wistar Han rat at 10 mg/kg by LC-MS/MS analysis. In kind it is ADME, organism-based. As to conditions: in vivo.
Data set [9] in a line: Cmax in male Wistar Han rat at 10 mg/kg,po by LC-MS/MS analysis. In kind it is ADME, organism-based. Also on record: dose 10 mg/kg, route po. As to conditions: in vivo.
The nature of data set [10]: Half life in male Wistar Han rat at 10 mg/kg,po by LC-MS/MS analysis. In kind it is ADME, organism-based. As to conditions: in vivo.
Data set [11] in a line: Cmax in male cynomolgus monkey at 30 mg/kg,po by LC-MS/MS analysis. In kind it is ADME, organism-based, Macaca fascicularis. Also on record: dose 30 mg/kg, route po. As to conditions: in vivo.
Data set [12] is described as follows: Oral bioavailability in female cynomolgus monkey at 3 mg/kg by LC-MS/MS analysis. In kind it is ADME, organism-based, Macaca fascicularis. As to conditions: in vivo.
A short description of data set [13]: Tmax in male Wistar Han rat at 10 mg/kg,po by LC-MS/MS analysis. In kind it is ADME, organism-based. As to conditions: in vivo.
The nature of data set [14]: Half life in male Wistar Han rat at 30 mg/kg,po by LC-MS/MS analysis. As to conditions: in vivo. In kind it is ADME, organism-based.
In a further data set the target is Cytochrome P450 2C9 (Homo sapiens, UniProt P11712). Nature of the data set: Inhibition of CYP2C9 (unknown origin). In kind it is ADME.
Sequence of Cytochrome P450 2C9 (P11712 whole entry): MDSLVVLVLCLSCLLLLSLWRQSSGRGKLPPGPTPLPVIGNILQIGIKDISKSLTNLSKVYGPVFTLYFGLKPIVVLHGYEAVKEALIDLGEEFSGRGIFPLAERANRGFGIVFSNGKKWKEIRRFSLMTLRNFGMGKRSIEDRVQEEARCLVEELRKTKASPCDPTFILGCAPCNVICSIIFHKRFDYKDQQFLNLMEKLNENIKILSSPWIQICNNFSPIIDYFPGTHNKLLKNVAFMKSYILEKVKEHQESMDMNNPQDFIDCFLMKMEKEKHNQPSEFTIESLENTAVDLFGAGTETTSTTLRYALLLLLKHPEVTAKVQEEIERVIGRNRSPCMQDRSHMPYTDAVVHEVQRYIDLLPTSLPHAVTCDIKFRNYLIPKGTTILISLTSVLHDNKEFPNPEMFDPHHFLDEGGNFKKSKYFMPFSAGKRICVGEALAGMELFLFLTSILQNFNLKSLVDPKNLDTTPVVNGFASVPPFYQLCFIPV
Data set [15] is described as follows: Half life in female cynomolgus monkey at 10 mg/kg,po by LC-MS/MS analysis. As to conditions: in vivo. In kind it is ADME, organism-based, Macaca fascicularis.

With `CCOC(=O)C1=C(CN2CCN3C(=O)N(CC(C)(C)C(=O)O)C[C@@H]3C2)NC(c2nccs2)=N[C@H]1c1cccc(F)c1C` [LINVENCORVIR], the Cmax (commonly the maximum level reached in the sampled fluid or tissue) was determined as 0.298 µg/mL in data set [1], 3.31 µg/mL in data set [4], 0.512 µg/mL in [9] and 2.87 µg/mL in data set [11]. Further, the AUC(0-t) – broadly, exposure summed from dosing to a finite time, without extrapolation to infinity – was found to be 0.22 µg·h/mL in data set [2] and 0.253 µg·h/mL in data set [6]. The AUC (commonly the area under the concentration-time curve, a measure of exposure) in data set [3] turned out to be 0.275 µg·h/mL. Further, the Tmax (usually the time from dosing to the highest level) in data set [5] worked out at 2 h; in data set [13], 1.5 h. Moreover, the half-life (in general, the time in which the quantity being followed falls by half) was 5.98 h in [7], 1.43 h in data set [10], 2.79 h in [14] and 8.13 h in [15]. Further, the bioavailability (in general, the share of a dose that reaches the circulation, judged against a reference dose that is usually intravenous) came out at 36.4% in data set [8] and 14.5% in data set [12]. Moreover, the pIC50 (commonly −log10 of the IC50, conventionally taken in molar units) at Cytochrome P450 2C9 was under 4.30.
